“And” between values parts separate entries of the source, which are not always exact repeats. Identical values can stand only once.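 The compound was tested at five concentrations on cells cultured in 96-well plates, with a 48-hour exposure period. At the GI50, growth is halved. TGI marks complete inhibition of growth.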
How the values were obtained:
Assay in all cases: NCI anticancer screen, dose series, 48 h
RPMI-8226 leukemia = system: RPMI-8226 leukemia
SK-MEL-5 melanoma = system: SK-MEL-5 melanoma
SW-620 colon = system: SW-620 colon
SNB-19 CNS = system: SNB-19 CNS
A549 NSCLC = system: A549 NSCLC
M14 melanoma = system: M14 melanoma
UACC-62 melanoma = system: UACC-62 melanoma
EKVX NSCLC = system: EKVX NSCLC
SNB-75 CNS = system: SNB-75 CNS
OVCAR-5 ovarian = system: OVCAR-5 ovarian

SMILES | GI50 (RPMI-8226 leukemia) | TGI (RPMI-8226 leukemia) | GI50 (SK-MEL-5 melanoma) | TGI (SK-MEL-5 melanoma) | GI50 (SW-620 colon) | TGI (SW-620 colon) | GI50 (SNB-19 CNS) | TGI (SNB-19 CNS) | GI50 (A549 NSCLC) | TGI (A549 NSCLC) | GI50 (M14 melanoma) | TGI (M14 melanoma) | GI50 (UACC-62 melanoma) | TGI (UACC-62 melanoma) | GI50 (EKVX NSCLC) | TGI (EKVX NSCLC) | GI50 (SNB-75 CNS) | TGI (SNB-75 CNS) | GI50 (OVCAR-5 ovarian) | TGI (OVCAR-5 ovarian)
CN(C)c1ccc(/C=c2\sc3nnc(Cc4ccccc4)n3c2=O)cc1 | > 100 µM | > 100 µM | > 100 µM | > 100 µM | > 10 µM | > 10 µM and 29.2 µM | > 100 µM | > 100 µM | > 10 µM | > 100 µM | > 100 µM | > 100 µM | > 100 µM | > 100 µM | > 100 µM | > 100 µM | > 100 µM | > 100 µM | > 100 µM | > 100 µM
COc1ccc(OC)c(/C=C/C(=O)c2ccc3cc(OC)ccc3c2)c1 | 4.53 µM | > 37.8 µM | 6.4 µM | > 24.3 µM | – | > 50 µM | – | > 17.2 µM | 9.52 µM | > 32.4 µM | > 23.4 µM | > 50 µM | 5.52 µM | > 12.2 µM | > 12.3 µM | > 50 µM | 1.78 µM | 4.53 µM | > 11.6 µM | > 50 µM
O=C(O)CSc1nnc2c3ccccc3c3ccccc3c2n1 | – | 99.4 µM | – | > 100 µM | – | > 100 µM | – | > 100 µM | – | > 100 µM | – | > 100 µM | – | > 100 µM | – | > 100 µM | – | > 100 µM | – | > 100 µM
CN(C)c1ccc(/C=N/NC(=O)c2cnc3ccccc3c2)cc1 | – | > 100 µM | – | > 100 µM | – | > 100 µM | – | > 100 µM | – | > 100 µM | – | > 100 µM | – | > 100 µM | – | > 100 µM | – | 50.6 µM | – | > 100 µM
O=S1Cc2ccccc2CSS1 (stereo not drawn) | – | 39.8 µM | – | 26.3 µM | – | 27.2 µM | – | > 100 µM | – | 46.7 µM | – | 27 µM | – | 26.5 µM | – | 53.9 µM | – | 43.4 µM | – | 37.4 µM
NCCNc1ncnc2ccc(Cl)cc12 | – | > 100 µM | – | > 100 µM | – | > 100 µM | – | > 100 µM | – | > 100 µM | – | > 100 µM | – | > 100 µM | – | > 100 µM | – | > 100 µM | – | > 100 µM
CN1CCN(Cc2ccc(NC(=O)c3[nH]ncc3Nc3cc(OC4CCCC4)ncn3)cc2)CC1 | 2.94 µM | 6.71 µM | 1.44 µM | 4.07 µM | 2.66 µM | 7.25 µM | 4.74 µM | 15.7 µM | 2.11 µM | 10.5 µM | 1.35 µM | 3.62 µM | 3.44 µM | 11.1 µM | 3.86 µM | 18.6 µM | 3.53 µM | 16.4 µM | 2.79 µM | 7.12 µM
COC(=O)[C@]1(C)CC[C@]2(C)CC[C@]3(C)C(=CC(=O)[C@@H]4[C@@]5(C)CCC(=O)NC(C)(C)[C@@H]5CC[C@]43C)[C@@H]2C1 | 12 µM | 34.7 µM | 14.7 µM | 28.9 µM | 27.3 µM | > 100 µM | 29 µM | > 100 µM | 32.8 µM | > 100 µM | 19.3 µM | 44.4 µM | 15.3 µM | 38.2 µM | 25.5 µM | > 100 µM | 25.5 µM | > 100 µM | 21.3 µM | 38.9 µM
C=CC(=O)Nc1cccc(Nc2nc(Nc3ccc(N4CCN(C(C)=O)CC4)cc3OC)ncc2C(F)(F)F)c1 | 4.17 µM and 3.43 µM | > 10 µM and 25.6 µM | 4.12 µM and 4.3 µM | > 10 µM and 17.9 µM | 3.07 µM and 2.29 µM | > 10 µM and 12.7 µM | 5.83 µM | > 100 µM | 2.52 µM and 1.81 µM | > 10 µM and 12.1 µM | 3.67 µM and 2.73 µM | > 100 µM | 2.7 µM | 22.6 µM | 1.36 µM and 1.68 µM | > 10 µM and 12.4 µM | 5.18 µM and 2.47 µM | > 10 µM and 15.3 µM | 3.15 µM and 2.29 µM | > 100 µM
COC(=O)C(C(=O)C(=O)Nc1ccc(N)cc1[N+](=O)[O-])c1nc2ccc(Cl)cc2[nH]c1=O (stereo not drawn) | – | > 100 µM | – | > 100 µM | – | > 100 µM | – | > 100 µM | – | > 100 µM | – | > 100 µM | – | > 100 µM | – | > 100 µM | – | > 100 µM | – | > 100 µM
CSc1nc(-c2cccc(NC(=O)CCl)c2)c(C#N)c(=O)n1C | 1.75 µM | 4.88 µM | 1.33 µM | 2.74 µM | 1.51 µM | 3.44 µM | 1.63 µM | 3.29 µM | 3.28 µM | 17.4 µM | 1.78 µM | 5.61 µM | 1.5 µM | 3.73 µM | 1.88 µM | 3.65 µM | 1.19 µM | 2.47 µM | 1.83 µM | 3.38 µM
C/C(=N\NS(=O)(=O)c1ccccc1)c1ccc[n+]([O-])n1 | – | > 100 µM | – | > 100 µM | – | > 100 µM | – | > 100 µM | – | > 100 µM | – | > 100 µM | – | > 100 µM | – | > 100 µM | – | > 100 µM | – | > 100 µM
